Reference: patent EP0354714A2, “Pharmaceutical compositions containing polyaromatic compounds” (HADASSAH MEDICAL ORGANIZATION, priority 1988, dated 1990)

Key:
[1] = molecular target: T1, ESb mouse lymphoma heparanase (Mus musculus, UniProt Q6YGZ1); assay: Inhibition of heparanase degradation of 35S-labelled ECM; type: biochemical; conditions: 10 µgr/ml, 24 hours; for Total low-mol-wt. HS fragments released by heparanase (cpm): control 17,756 cpm
T1 construct: endogenous in cells; host or cells: ESb mouse lymphoma cells
T1 sequence (Q6YGZ1 150-535 limits assumed): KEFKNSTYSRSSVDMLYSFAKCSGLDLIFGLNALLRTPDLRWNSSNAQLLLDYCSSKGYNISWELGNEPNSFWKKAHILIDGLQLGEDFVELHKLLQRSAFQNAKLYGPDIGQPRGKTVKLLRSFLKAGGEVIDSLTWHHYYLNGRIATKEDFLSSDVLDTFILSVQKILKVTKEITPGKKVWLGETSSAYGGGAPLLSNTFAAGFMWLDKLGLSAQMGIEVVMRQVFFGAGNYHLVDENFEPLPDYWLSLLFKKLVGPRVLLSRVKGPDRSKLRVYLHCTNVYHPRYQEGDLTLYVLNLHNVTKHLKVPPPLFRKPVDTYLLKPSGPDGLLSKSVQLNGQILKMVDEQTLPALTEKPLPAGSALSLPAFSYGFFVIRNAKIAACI
T1 sequence (Q6YGZ1 28-101 limits assumed): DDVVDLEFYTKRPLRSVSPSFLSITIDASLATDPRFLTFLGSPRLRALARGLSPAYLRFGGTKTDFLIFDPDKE
Procedure: The ability of several of the above mentioned compounds to inhibit lymphoma-cell derived heparanse was tested in the assay system described by Vlodavsky et al. (Cancer Research. 43: 2704-2711 (1983). ³⁵S labled ECM was incubated for 24 hours with ESb mouse lymphoma heparanase in the presence of 10 ugr ml of the indicated compounds. Degradation of the sulfated glycosaminoglycan was followed by gel filtration of the supernatants. Heparanase activity is expressed as the total amount of labled low-molecular-weight fragments released from the ECM substrate. The results are summarized in Table III. Table III

[2] = test system: Bovine aortal smooth-muscle cells; assay: 3H thymidine incorporation in smooth muscle cells (resting, FGF- or thrombin-stimulated); type: cell-based; conditions: for H³ thymidine incorporation per well (cpm. mean of duplicates) +FGF: FGF 250 ngr/ml, without aluminon 22,574; for H³ thymidine incorporation per well (cpm. mean of duplicates) +FGF / H³ thymidine incorporation per well (cpm. mean of duplicates) Control / H³ thymidine incorporation per well (cpm. mean of duplicates) +Thrombin: 2 days; for H³ thymidine incorporation per well (cpm. mean of duplicates) Control: resting cells, without aluminon 9.823; for H³ thymidine incorporation per well (cpm. mean of duplicates) +Thrombin: thrombin 10⁻⁶M, without aluminon 54,000
Procedure: Bovine aortal smooth-muscle cells were grown in tissue culture plates in the presence of glucose-rich medium (H-21). The cultures (around 35x10³ cells/well in 24 wells' plates) were initially supplemented with 10% fetal calf serum (FCS) for 2-3 days. The cell nutrition was then replaced by a serum-deprived medium (H-21 plus 0.2% FCS) in order to test the effect of defined growth factors on the proliferation of smooth-muscle cells and their possible inhibition by the compounds with heparin-like activity.
In the following representative experiment, the cells transferred to the serum-deprived medium were grown in the presence of thrombin (10⁻⁶M) or FGF (partially purified from bovine brain, 250 ngr/ml). Various concentrations of aluminon were added to the thrombin or FGF-treated cells and to non-treated control cultures. ³H thymidine was also added to all wells for an incubation period of 2 days. The cultures were then harvested and the ³H thymidine incorporated into DNA was measured.

[3] = PTT in rats after oral administration; type: in vivo; conditions: 1 ml of 10%-20% solution, after 2-4 hours, around 20 sec. at time 0
From the text: Moreover, since aluminon can be absorbed through the gastrointestinal tract, it can be used as an orally administratable anticoagulant (as opposed to heparin which has to be given by injection).

normal pooled plasma = assay: Activated partial thromboplastin time (APTT) in normal pooled plasma; type: biochemical; conditions: Concentration 0.2 mg/mL; normal pooled plasma alone 25 - 28 sec.
Procedure: Measurement of Activated Partial Thromboplastin Time (APTT)
Utilizing the following procedure, the activated partial thromboplastin time (APTT) was measured for each of comparative compounds A-D:
To an assay cuvette was added 100 ul of normal pooled plasma (George King Biomedical Inc., Kansas) and 100 ul of a solution containing one of the above compounds in aqueous 50 mM Tris hydrochloride at pH 7.5 (0.2 mg of sample in one mL buffer). The sample was placed in a MLA coagulation timer which automatically maintained the sample at 37°C for 2.5 minutes, injected 100 ul of actin activated cephaloplastin reagent, kept 5 minutes, injected 100 ul of 3 mM CaCl, and the clot formation was determined photometrically and the time recorded.

[4] = Minimum concentration that significantly prolongs APTT versus standard buffer solution; type: biochemical; conditions: concentration at which the polymeric components of the dye significantly prolonged APTT versus standard buffer solution
lipoprotein lipase (LPL) = molecular target: T2, lipoprotein lipase (LPL) (Rattus norvegicus, UniProt Q06000); assay: LPL activity in cultured heart cells and their medium after 24 hrs incubation; type: cell-based; conditions: heart cells; for LPL activity: Total: control 3237; for LPL activity: Medium / LPL activity: Cells: mean±SEM of triplicates; for LPL activity: Medium: control 817±14; for LPL activity: Cells: control 2420±93
T2 construct: endogenous in cells; host or cells: F1 heart cell cultures from newborn rat hearts (mainly non-beating mesenchymal cells)
T2 sequence (Q06000 28-474): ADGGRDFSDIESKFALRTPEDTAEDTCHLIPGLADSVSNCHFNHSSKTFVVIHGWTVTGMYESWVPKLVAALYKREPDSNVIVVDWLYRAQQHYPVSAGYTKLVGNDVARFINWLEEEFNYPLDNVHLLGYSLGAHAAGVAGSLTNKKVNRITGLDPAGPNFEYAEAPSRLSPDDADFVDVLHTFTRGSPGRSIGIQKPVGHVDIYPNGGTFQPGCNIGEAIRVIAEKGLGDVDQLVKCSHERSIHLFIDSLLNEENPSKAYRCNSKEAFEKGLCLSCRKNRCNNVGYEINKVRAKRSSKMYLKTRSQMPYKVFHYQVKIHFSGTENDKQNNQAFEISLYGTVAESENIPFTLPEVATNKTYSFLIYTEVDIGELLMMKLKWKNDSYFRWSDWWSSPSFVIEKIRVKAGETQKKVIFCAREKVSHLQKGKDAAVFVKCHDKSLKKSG
Procedure: The enzyme LPL participate in the process of lipid transfer from the bloodstream to the tissues, LPL is bound to the external surface of cells via its association with cell-membrane glycosaminoglycans. Cultured heart cells is a powerful system in the study of the enzyme turn-over and the exploration of ways to manipulate its level since these cells are active in the biosynthesis of LPL, in addition to the surface binding of the enzyme.
F₁ heart cell cultures were prepared from newborn rat hearts as previously described (Chajek, T. et al., Biochem. Biophys. Acta 528, 456-474 (1978)). They consisted mainly of non-beating mesenchymal cells and were used 8-12 days after their isolation.
The enzyme activity was determined on aliquots of medium and of homogenates of cells which had been released from the petri dish with a rubber policeman in 1 ml of 0.025 M NH₃/NH₄Cl buffer (pH 8.1) containing 1 unit/ml of heparin. The assay system consisted of 0.1 ml of medium or 0.1 ml of cell homogenate ([…]) and 0.1 ml of substrate containing labeled triolein, prepared according to the method of Nilsson-Ehle and Schotz, (J. Lipid Res. 17, 536-541 (1976)). Incubations were carried out at 37°C for 45 min. The reaction was stopped by the addition of methanol/chloroform/heptane (1.4:1.25:1.v/v) and the extraction of fatty acids was performed according to the method of Belfrage and Vaughan (J. Lipid Res. 10, 341-344 (1969), as modified by Nilsson-Ehle and Schotz. Enzyme activity was calculated according to the formula of Nilsson-Ehle and Schotz.

O=C(O)C1=CC(=C(c2ccc(O)c(C(=O)O)c2)c2ccc(O)c(C(=O)O)c2)C=CC1=O [Aluminon, aurintricarboxylic acid]
% Inhibition [1]: 78% | H³ thymidine incorporation per well (cpm. mean of duplicates) +FGF ([2]; Aluminon 0.2 µgr/ml): 22,256 cpm | H³ thymidine incorporation per well (cpm. mean of duplicates) Control ([2]; Aluminon 0.2 µgr/ml): 8,425 cpm | H³ thymidine incorporation per well (cpm. mean of duplicates) +Thrombin ([2]; Aluminon 0.2 µgr/ml): 46,857 cpm | H³ thymidine incorporation per well (cpm. mean of duplicates) +FGF ([2]; Aluminon 2 µgr/ml): 13,089 cpm | H³ thymidine incorporation per well (cpm. mean of duplicates) Control ([2]; Aluminon 2 µgr/ml): 5,120 cpm | H³ thymidine incorporation per well (cpm. mean of duplicates) +Thrombin ([2]; Aluminon 2 µgr/ml): 14,064 cpm | H³ thymidine incorporation per well (cpm. mean of duplicates) +FGF ([2]; Aluminon 10 µgr/ml): 6,846 cpm | H³ thymidine incorporation per well (cpm. mean of duplicates) Control ([2]; Aluminon 10 µgr/ml): 4,105 cpm | H³ thymidine incorporation per well (cpm. mean of duplicates) +Thrombin ([2]; Aluminon 10 µgr/ml): 6,877 cpm | H³ thymidine incorporation per well (cpm. mean of duplicates) +FGF ([2]; Aluminon 20 µgr/ml): 6,745 cpm | H³ thymidine incorporation per well (cpm. mean of duplicates) Control ([2]; Aluminon 20 µgr/ml): 4,343 cpm | H³ thymidine incorporation per well (cpm. mean of duplicates) +Thrombin ([2]; Aluminon 20 µgr/ml): 5,705 cpm | inhibition ([2]; aluminon concentration of 2 µgr/ml (∼4x10⁻⁶M)): More than 40% | PTT [3]: > 200 s

O=C(O)C1=CC(=C(c2ccc(O)c(C(=O)O)c2)c2ccc(O)c(C(=O)O)c2)C=CC1=O [Comparative Compound C]
APTT (normal pooled plasma): 28 s

CN(C)c1ccc(C(=C2C=CC(=[N+](C)C)C=C2)c2ccc(N(C)C)cc2)cc1 [Crystal Violet]
Minimum Final Concentration [4]: 8.3 µg/mL

CCN(CC)c1ccc(C(=C2C=CC(=[N+](CC)CC)C=C2)c2ccc(N(CC)CC)cc2)cc1.[Cl-] [Ethyl Violet]
Minimum Final Concentration [4]: 50.0 µg/mL

Cc1cc(-c2ccc(/N=N/c3ccc4c(S(=O)(=O)[O-])cc(S(=O)(=O)[O-])c(N)c4c3O)c(C)c2)ccc1/N=N/c1ccc2c(S(=O)(=O)[O-])cc(S(=O)(=O)[O-])c(N)c2c1O.[Na+].[Na+].[Na+].[Na+] [Evan's Blue]
% Inhibition [1]: 60% | Total low-mol-wt. HS fragments released by heparanase (cpm) [1]: 6,986 cpm | % increase in the total (lipoprotein lipase (LPL); Evan's Blue 10⁻³ M): +139.4% | LPL activity: Total (lipoprotein lipase (LPL); Evan's Blue 10⁻³ M): 7749 m mole FFA/h/dish | LPL activity: Medium (lipoprotein lipase (LPL); Evan's Blue 10⁻³ M): 6051±435 m mole FFA/h/dish | LPL activity: Cells (lipoprotein lipase (LPL); Evan's Blue 10⁻³ M): 1698±184 m mole FFA/h/dish | % increase in the total (lipoprotein lipase (LPL); Evan's Blue 10⁻⁴ M): +61.6% | LPL activity: Total (lipoprotein lipase (LPL); Evan's Blue 10⁻⁴ M): 5230 m mole FFA/h/dish | LPL activity: Medium (lipoprotein lipase (LPL); Evan's Blue 10⁻⁴ M): 2783±194 m mole FFA/h/dish | LPL activity: Cells (lipoprotein lipase (LPL); Evan's Blue 10⁻⁴ M): 2447±48 m mole FFA/h/dish | % increase in the total (lipoprotein lipase (LPL); Evan's Blue 10⁻⁵ M): +32.5% | LPL activity: Total (lipoprotein lipase (LPL); Evan's Blue 10⁻⁵ M): 4288 m mole FFA/h/dish | LPL activity: Medium (lipoprotein lipase (LPL); Evan's Blue 10⁻⁵ M): 1531±182 m mole FFA/h/dish | LPL activity: Cells (lipoprotein lipase (LPL); Evan's Blue 10⁻⁵ M): 2757±114 m mole FFA/h/dish

CCN(Cc1cccc(S(=O)(=O)O)c1)c1ccc(C(=C2C=CC(=[N+](CC)Cc3cccc(S(=O)(=O)O)c3)C=C2)c2ccc(O)cc2S(=O)(=O)[O-])cc1 [Fast Green]
% Inhibition [1]: 32% | Total low-mol-wt. HS fragments released by heparanase (cpm) [1]: 12,139 cpm

CN(C)c1ccc(C(=C2C=CC(=[N+](C)C)C=C2)c2ccccc2)cc1 [Malachite Green]
Minimum Final Concentration [4]: 150.0 µg/mL

O=S(=O)(O)c1ccc(N=C2C=CC(=C(c3ccc(Nc4ccc(S(=O)(=O)O)cc4)cc3)c3ccc(Nc4ccc(S(=O)(=O)O)cc4)cc3)C=C2)cc1 [Methyl Blue]
Minimum Final Concentration [4]: 100.0 µg/mL | % Inhibition [1]: 23% | Total low-mol-wt. HS fragments released by heparanase (cpm) [1]: 13,676 cpm

CN(C)c1ccc(C(=C2C=CC(=[N+](C)C)C=C2)c2ccc([N+](C)(C)C)cc2)cc1.[Cl-].[Cl-] [Methyl Green]
Minimum Final Concentration [4]: 50.0 µg/mL

Cc1cc(C(=C2C=CC(=N)C=C2)c2ccc(N)cc2)ccc1N [Rosaniline Chloride]
Minimum Final Concentration [4]: 12.5 µg/mL

Cc1cc2nc3cc(C)c(N)cc3[n+](-c3ccccc3)c2cc1N.[Cl-] [Safranin O]
Minimum Final Concentration [4]: 150.0 µg/mL

Aniline Blue
Minimum Final Concentration [4]: 150.0 µg/mL

Basic Fuchsin
Minimum Final Concentration [4]: 50.0 µg/mL

Brilliant Cresyl Blue
Minimum Final Concentration [4]: 150.0 µg/mL

Methyl Violet
Minimum Final Concentration [4]: 75.0 µg/mL
